Experiment [1] addresses T1, human RORgt nuclear receptor (RORgT ligand binding domain protein) (Homo sapiens, UniProt P51449).
T1 construct: purchased Proteros Biostructures GmbH
T1 sequence (P51449 with tags, fused parts or gaps): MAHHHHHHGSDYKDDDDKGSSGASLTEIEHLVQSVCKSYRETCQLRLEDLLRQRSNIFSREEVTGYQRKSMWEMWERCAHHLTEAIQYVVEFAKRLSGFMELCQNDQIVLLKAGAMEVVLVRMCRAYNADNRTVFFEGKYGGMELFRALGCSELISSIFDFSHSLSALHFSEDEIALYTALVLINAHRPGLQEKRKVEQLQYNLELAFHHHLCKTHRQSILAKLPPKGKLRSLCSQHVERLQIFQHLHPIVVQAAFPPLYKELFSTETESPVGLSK
The experiment is described as follows: ROR-gamma binding assay (Scintillation Proximity Assay, displacement of [3H]-25-hydroxycholesterol). The conditions noted are these: EC50, SPA, 15 nM [3H]-25-Hydroxycholesterol, RORgT LBD 12 nM. As to the method: This assay is used to evaluate the binding affinity of compounds to the ligand-binding pocket of the human RORgt nuclear receptor based on displacement of a radio-ligand. The EC50 values are calculated using a four parameter fit. Compounds binding with high affinity to RORgt will have low EC50 values.
The assay is a Scintillation Proximity Assay (SPA) that involves competition between an unlabeled test compound and tritium-labeled 25-hydroxycholesterol for binding to RORgT ligand binding domain (LBD) protein immobilized on the surface of SPA beads. These beads contain a scintillant that emits light if excited by a radioactive particle, and this light is detected using a scintillation counter. In this assay, tritium-labelled 25-hydroxycholesterol is used as radiotracer.
400 nL of titrated test and reference compounds in DMSO were transferred by the Echo liquid handling system to a 384-well assay plate followed by addition of 5 μL [3H]-25-Hydroxycholesterol (Perkin Elmer) and 35 μL diluted RORgT LBD protein with the following amino acid sequence (HIS-FLG-tag): MAHHHHHHGSDYKDDDDKGSSGASLTEIEHLVQSVCKSYRETCQLRLEDLLRQRSNIFSREEVTGYQRKSMWEMWERCAHHLTEAIQYVVEFAKRLSGFMELCQNDQIVLLKAGAMEVVLVRMCRAYNADNRTVFFEGKYGGMELFRALGCSELISSIFDFSHSLSALHFSEDEIALYTALVLINAHRPGLQEKRKVEQLQYNLELAFHHHLCKTHRQSILAKLPPKGKLRSLCSQHVERLQIFQHLHPIVVQAAFPPLYKELFSTETESPVGLSK (SEQ ID NO: 1) (Purchased from Proteros Biostructures GmbH). After 30 min of preincubation, 40 μL of HIS-TAG PVT SPA beads (Perkin Elmer) were added. The plates were then incubated for minimum 4 hours at room temperature in darkness before measuring the SPA signal using a MicroBeta plate scintillation counter. Final assay conditions were: 50 mM HEPES pH 7.4, 150 mM NaCl, 5 mM MgCl2, 0.1% BSA, 4 μg/well HIS-TAG PVT SPA Beads, 30 ng/well RORgT LBD (equal to a final concentration of 12 nM), 15 nM [^3H]-25-Hydroxycholesterol, 0.5% DMSO and varying concentrations of test compound in a total volume of 80 μL/well. EC50 values were calculated using a 4-parameter non-linear regression curve-fitting model.

The subject of experiment [2] is IL-17A in Human peripheral mononuclear cells. The experiment is described as follows: Human PBMC IL-17A assay. To be noted: 72 h, EC50, antiCD3/antiCD28-coated beads, 3 days, alpha-LISA. Type of experiment: cell-based. As to the method:
This assay measures the IL-17A inhibitory potential of test compounds in Human peripheral mononuclear cells.
Peripheral blood mononuclear cells (PBMC) were isolated from human buffy coats using density grade centrifugation (Lymphoprep, Medinor), washed twice in PBS and frozen at −150° C. for later use.
Test compounds were diluted in DMSO and 70 nL of titrated test and reference compounds were transferred by the Echo liquid handling system to a 384-well assay plate in to give a final concentration of 0.1% DMSO in the wells.
The PBMC were thawed, washed and suspended in RPMI-1640 supplemented with pen/strep, glutamax and 10% bovine calf serum. The cells were mixed with antiCD3/antiCD28-coated beads (1 cells pr one bead) (Milteney T-cell expansion kit), and immediately thereafter the cells were pipetted to the plate at 130,000c/well. The plate was incubated for 3 days in humidified air/CO2 (95%/5%) On day 3 the level of IL-17A in the culture supernatant is measured using alpha-LISA kit (Perkin Elmer). Cell viability was measured by adding 6 uL pr well Prestoblue© (Life Technologies) and incubating for 2 hours followed by fluorescent measurement (Ex535/Em615). EC50 values were calculated using a 4-parameter non-linear regression curve-fitting model. Donors may be pre-screened in order to select PBMC with a high secretion of IL-17A.

In experiment [3] the test system is IL-17A levels in human peripheral blood. The experiment is described as follows: tissue or blood. Type of experiment: cell-based. To be noted: 72 h, read-out: Human Whole blood IL-17A (nM).

The text below walks through data of patent US10934282B2, “Heteroaromatic modulators of the retinoid-related orphan receptor gamma” (LEO PHARMA A/S, priority 2016, dated 2021).

`Cc1c(CN2CCN(C(=O)C3CCC3)[C@@H](C)C2)cc(C(F)F)cc1Nc1nnc([C@H](C)O)o1` [Example 27, cyclobutyl-[(2S)-4-[[5-(difluoromethyl)-3-[[5-[(1S)-1-hydroxyethyl]-1,3,4-oxadiazol-2-yl]amino]-2-methyl-phenyl]methyl]-2-methyl-piperazin-1-yl]methanone]: the EC50 is 95.9 nM in experiment [1], 425 nM in experiment [2] and 457 nM in experiment [3].

As for `Cc1cc(CN2CCN(C(=O)OC(C)(C)C)[C@@H](C)C2)c(C)c(Nc2nnc([C@H]3C[C@@H](O)C3)o2)c1` [Example 29, tert-butyl (2S)-4-[[3-[[5-(3-hydroxycyclobutyl)-1,3,4-oxadiazol-2-yl]amino]-2,5-dimethyl-phenyl]methyl]-2-methyl-piperazine-1-carboxylate], the EC50 in experiment [1] worked out at 37.8 nM; in experiment [2], 117 nM; in experiment [3], 422 nM.

As to `Cc1cc(CN2CCN(C(=O)OC(C)(C)C)[C@@H](C)C2)c(C)c(Nc2nnc(-c3cnnn3C)o2)c1` [Example 30, tert-butyl (2S)-4-[[2,5-dimethyl-3-[[5-(3-methyltriazol-4-yl)-1,3,4-oxadiazol-2-yl]amino]phenyl]methyl]-2-methyl-piperazine-1-carboxylate], the results for the EC50 in experiment [1], in experiment [2] and in experiment [3] were 31.2 nM, 93.6 nM and 239 nM, respectively.

In the case of `Cc1cc(CN2CCN(C(=O)OC(C)(C)C)[C@@H](C)C2)c(C)c(Nc2nnc(-c3ccnn3C)o2)c1` [Example 31, tert-butyl (2S)-4-[[2,5-dimethyl-3-[[5-(2-methylpyrazol-3-yl)-1,3,4-oxadiazol-2-yl]amino]phenyl]methyl]-2-methyl-piperazine-1-carboxylate], the EC50 was determined as 32.4 nM in experiment [1], 63.5 nM in experiment [2] and 231 nM in experiment [3].

With `Cc1cc(CN2CCN(C(=O)OC(C)(C)C)[C@@H](C)C2)c(C)c(Nc2nnc(-c3ccno3)o2)c1` [Example 32, tert-butyl (2S)-4-[[3-[(5-isoxazol-5-yl-1,3,4-oxadiazol-2-yl)amino]-2,5-dimethyl-phenyl]methyl]-2-methyl-piperazine-1-carboxylate], the EC50 came out at 26.4 nM in experiment [1], 101 nM in experiment [2] and 392 nM in experiment [3].

As for `Cc1cc(CN2CCN(C(=O)OC(C)(C)C)[C@@H](C)C2)c(C)c(Nc2nnc(-c3cnsn3)o2)c1` [Example 33, tert-butyl (2S)-4-[[2,5-dimethyl-3-[[5-(1,2,5-thiadiazol-3-yl)-1,3,4-oxadiazol-2-yl]amino]phenyl]methyl]-2-methyl-piperazine-1-carboxylate], the EC50 in experiment [1] came out at 23.3 nM; in experiment [2], 45.2 nM; in experiment [3], 126 nM.

As to `Cc1cc(CN2CCN(C(=O)OC(C)(C)C)[C@@H](C)C2)c(C)c(Nc2nnc(-c3nonc3C)o2)c1` [Example 34, tert-butyl (2S)-4-[[2,5-dimethyl-3-[[5-(4-methyl-1,2,5-oxadiazol-3-yl)-1,3,4-oxadiazol-2-yl]amino]phenyl]methyl]-2-methyl-piperazine-1-carboxylate], the values for the EC50 in experiment [1], in experiment [2] and in experiment [3] were 24.6 nM, 24.8 nM and 83.7 nM, respectively.

Consider `Cc1cc(CN2CCN(C(=O)OC(C)C)[C@@H](C)C2)c(C)c(Nc2nnc(C)o2)c1` [Example 35, isopropyl (2S)-4-[[2,5-dimethyl-3-[(5-methyl-1,3,4-oxadiazol-2-yl)amino]phenyl]methyl]-2-methyl-piperazine-1-carboxylate], for which the EC50 came out at 33.9 nM in experiment [1], 106 nM in experiment [2] and 499 nM in experiment [3].

For the molecule `Cc1cc(CN2CCN(C(=O)OC(C)C)[C@@H](C)C2)c(C)c(Nc2nnc([C@@H](N)CO)o2)c1` [Example 36, isopropyl (2S)-4-[[3-[[5-[(1S)-1-amino-2-hydroxy-ethyl]-1,3,4-oxadiazol-2-yl]amino]-2,5-dimethyl-phenyl]methyl]-2-methyl-piperazine-1-carboxylate], the EC50 amounted to 84.1 nM in experiment [1], 366 nM in experiment [2] and 451 nM in experiment [3].

Regarding `Cc1cc(CN2CCN(C(=O)OC(C)C)[C@@H](C)C2)c(C)c(Nc2nnc([C@H]3C[C@@H](O)C3)o2)c1` [Example 37, isopropyl (2S)-4-[[3-[[5-(3-hydroxycyclobutyl)-1,3,4-oxadiazol-2-yl]amino]-2,5-dimethyl-phenyl]methyl]-2-methyl-piperazine-1-carboxylate], the EC50 in experiment [1] came out at 40.8 nM; in experiment [2], 43.7 nM; in experiment [3], 426 nM.

As for `CC[C@H](N)c1nnc(Nc2cc(Cl)cc(CN3CCN(C(=O)OC(C)C)[C@@H](C)C3)c2C)o1` [Example 38, isopropyl (2S)-4-[[3-[[5-[(1S)-1-aminopropyl]-1,3,4-oxadiazol-2-yl]amino]-5-chloro-2-methyl-phenyl]methyl]-2-methyl-piperazine-1-carboxylate], the EC50 in experiment [1] is 49.7 nM; in experiment [2] it was 58.5 nM; in experiment [3], 403 nM.

For `Cc1c(CN2CCN(C(=O)OC(C)C)[C@@H](C)C2)cc(Cl)cc1Nc1nnc([C@@H](C)O)o1` [Example 39, isopropyl (2S)-4-[[5-chloro-3-[[5-[(1R)-1-hydroxyethyl]-1,3,4-oxadiazol-2-yl]amino]-2-methyl-phenyl]methyl]-2-methyl-piperazine-1-carboxylate], the EC50 in experiment [1] was 29.2 nM; in experiment [2], 38.2 nM; in experiment [3], 377 nM.

For `Cc1c(CN2CCN(C(=O)OC(C)C)[C@@H](C)C2)cc(Cl)cc1Nc1nnc(C2COC2)o1` [Example 40, isopropyl (2S)-4-[[5-chloro-2-methyl-3-[[5-(oxetan-3-yl)-1,3,4-oxadiazol-2-yl]amino]phenyl]methyl]-2-methyl-piperazine-1-carboxylate], the EC50 in experiment [1] turned out to be 21.2 nM; in experiment [2] it was 212 nM; in experiment [3] it was 365 nM.

As for `Cc1cc(CN2CCN(C(=O)OC(C)C)[C@@H](C)C2)c(C)c(Nc2nnc([C@@H](N)[C@@H](C)O)o2)c1` [Example 41, isopropyl (2S)-4-[[3-[[5-[(1S,2R)-1-amino-2-hydroxy-propyl]-1,3,4-oxadiazol-2-yl]amino]-2,5-dimethyl-phenyl]methyl]-2-methyl-piperazine-1-carboxylate], the EC50 in experiment [1] worked out at 91.1 nM; in experiment [2] it was 215 nM; in experiment [3] it was 373 nM.

As to `Cc1cc(CN2CCN(C(=O)OC(C)C)[C@@H](C)C2)c(C)c(Nc2nnc(CC#N)o2)c1` [Example 42, isopropyl (2S)-4-[[3-[[5-(cyanomethyl)-1,3,4-oxadiazol-2-yl]amino]-2,5-dimethyl-phenyl]methyl]-2-methyl-piperazine-1-carboxylate], the EC50 in experiment [1] stood at 48 nM; in experiment [2] it was 34.2 nM; in experiment [3] it was 359 nM.
